Assay results: patent US20200249194A9, “PROSTATE PROTEASE NANOSENSORS AND USES THEREOF” (Massachusetts Institute of Technology, priority 2017, published 2020)
Entries after “also recorded” stand apart in the source; their conditions may differ. Non-standard residues stand in square brackets, D forms with d. Primed or numbered codes have the meaning given here. No end group written: not given here. *: point of attachment. 5FAM = O=C1OC2(c3ccc(O)cc3Oc3cc(O)ccc32)c2ccc(C(=O)*)cc21; Biotin = O=C1N[C@H]2[C@H](CS[C@H]2CCCCC(=O)*)N1; CPQ2 = quencher paired with 5FAM as FRET pair; PEG2′ = not defined here; PEG = not defined here; QSY21 = QSY21 quencher; Cy5 = Cy5 fluorophore

Legend:
[1] = test system: PC3 cell line supernatant; test: Cleavage of 19-plex fluorogenic ABNs in PC3 supernatant; assay type: cell-based, human; conditions: for overall cleavage activity in the presence of inhibitor: PC3 supernatant, 19-plex fluorogenic ABNs; for cleavage by PC3 supernatant compared with 22Rv1: in vitro, fluorogenic
[2] = test system: serine hydrolase; design: species or system human
[3] = test system: 22Rv1 cell line supernatant; test: Cleavage of 19-plex fluorogenic ABNs in 22Rv1 supernatant; assay type: cell-based, human
[4] = test system: 22Rv1 xenograft tumor homogenates; test: Protease activity of tumor homogenates ex vivo; assay type: biochemical, mice
[5] = test system: tumor protease activity; test: In vivo protease activity imaging study; design: species or system mice; conditions: red-shifted FRET pair
[6] = test system: MMP13, uPA, KLK, MMP; test: Substrate cleavage assay of protease nanosensors (FIG. 12A); assay type: biochemical
Procedure: Xenograft model 22Rv1 (a non-metastatic tumor, referred to as Tnon-met) is derived from a primary tumor. […] PC3 (a metastatic tumor, referred to as Tmet) is undifferentiated, AR^−, PSA^−, and metastasizes to lymph node (LN), lung, and bone. Multiplexed sensors were selected to classify Tmet from Tnon-met (FIGS. 7A-7F). A substrate cleavage assay was performed (FIG. 12A) with several protease nanosensors (FIGS. 9A-9B and FIGS. 12A-12B).

[7] = test system: 15 selected proteases (MPs and SPs); Thrombin, Factor Xa and human plasma as negative filters; test: Cleavage of FRET-paired peptide substrates (free and PEG-coupled) by recombinant proteases; assay type: biochemical
Description: With an identified set of MPs and SPs, a panel of substrates was developed to measure their activity. A panel of 58 FRET-paired peptide substrates (labeled T1-58-Q, where Q denotes quenched Table 6) was screened for cleavage by the 15 selected proteases. To account for background cleavage in circulation, Thrombin, Factor Xa, and human plasma were included as negative filters. The library comprised peptides with diverse physiochemical properties to provide broad coverage, and kinetic parameters of cleavage of the FRET-paired substrates by recombinant proteases were measured and z-score normalized by protease. Substrates were grouped by hierarchical clustering to remove substrates with overlapping cleavage patterns, as they would not provide any orthogonal insight, resulting in a down-selected panel of 26 substrates.
For use in vivo, the peptides may be conjugated to a nanoparticle having robust accumulation in the prostate abilities. Thus, a biodistribution study was performed with three fluorophore-labeled carrier candidates and tested for their biodistribution following i.v. injection. […] Thus, the peptide substrates were conjugated to a PEG core and their cleavage profile was tested. […] Further mechanistic understanding of this variability may improve the development of ABN technology by identifying optimal surface presentation. […] Some substrates were cleaved specifically by a single protease on the biomarker list, whereas others were cleaved by multiple or all members of the enzyme family tested (Table 7).

[8] = test system: 22Rv1 xenografts; test: Urinary reporter signal of ABNs in 22Rv1 xenograft-bearing mice; assay type: in vivo
[9] = test system: MMP activity; test: FRET peptide substrate-cleavage assay in prostate tumor and NAT tissue samples; assay type: biochemical; conditions: human prostate tumor and matched NAT
Procedure: An assay was developed to measure protease activity in tissue samples. The mouse samples were excised, frozen in LN2, homogenized in PBS at 200 mgs/mL, and incubated with Q7 (FIG. 14A). In situ tissue zymography assays were additionally developed for frozen sections. Five sets of clinical human samples (both tumor and normal adjacent) were examined (FIG. 14B). The remaining fraction was tested on FRET substrates. Human sample cleavage was analyzed with substrate cleavage assays (Table 3). It was observed that many substrates are differentially cleaved in cancer tissue versus normal adjacent tissue.
As MP ABPs are less robust than serine ABPs, a FRET peptide substrate-cleavage assay was used to assay for MMP activity in the same tissue set evaluated by SOMAscan. Given the minimal tissue material available, each sample was evaluated with only a subset of substrates in duplicate. Multiple substrates were cleaved to a greater extent in tumor samples.

[10] = test system: PC3 xenografts; test: Urinary reporter signal of ABNs in PC3 xenograft-bearing mice; assay type: in vivo; conditions: for classification of PC3-bearing from 22Rv1-bearing mice: ROC curve analysis; for relative urine signal, PC3 compared with 22Rv1: 19-plex, mass-encoded reporters, xenografts ~100 mm3
Procedure: Having achieved this proof-of-concept urine monitoring of protease activity with a single substrate, the entire ABN library was tested in vivo with an emphasis on identifying reporters to differentiate mice bearing more aggressive (PC3) versus less aggressive (22Rv1) xenografts. To quantify cleavage of the entire library in urine, the substrates were barcoded using a next generation of mass-encoded reporters built upon the isobar coded reporters method (Kwong et al., Nat Biotechnol 31:63-70 (2013)). This […] sensor library enables increased multiplexing by uniquely labeling each peptide with stable 13C and 15N atoms, allowing for quantitation of reporter barcodes across a large dynamic range using liquid chromatography-tandem mass spectrometry (Table 8). To account for variability in glomerular filtration rate, urine volume, and hydration state, a free reporter (not coupled to PEG) was co-injected. The 19-plex ABN library was serially injected i.v. to PC3 tumor-bearing mice over the course of tumor development. […] Next, the ability of the 19-plex library to classify PC3 from 22Rv1 tumor-bearing mice was sought to be determined. Using the mass-encoded reporters to examine the cleavage of each individual sensor, an early time point was focused on and it was observed that several substrates were differentially cleaved between animals bearing similarly sized xenografts ( 100 mm3) from the more (PC3) versus less aggressive (22Rv1) cell lines. Overall, the cleavage profile differences between the two cohorts agree with each cell line's protease expression patterns and the substrate specificity of each protease. […] To simplify urinalysis, these ABNs were designed to release biotinylated urinary reporters to enable ELISA-based readouts. […] Additionally, PSA measurements in mice may overestimate its sensitivity, as there is no mouse homolog of PSA (Lundwall et al., Biol Chem 387:243-249 (2006)). It was next tested whether the three-plex iRGD-ABNs could classify distinct prostate cancer tumors. […] Based on ROC curve analysis, the […] ABNs classified the mice bearing the more aggressive PC3-derived tumors as distinct from 22Rv1-bearing mice. […] Differential expression analysis was performed on TCGA data using […]. Survival analysis was performed using cBioPortal. SOMAscan was performed at the Beth Israel Deaconess Medical Center (BIDMC) Genomics Proteomics Core. […] Sigma) at 1 μM in PBS. • Animal Models. All animal studies were approved by Massachusetts Institute of Technology's Committee on Animal Care (CAC) (Protocol 0417-025-20). Four- to six-week-old male NCr nude mice (Taconic) were injected bilaterally with 3.5×10^6 PCa cells per flank in a 1:1 ratio of complete media and Matrigel (354234; Corning). Baseline urine measurement was obtained before xenograft implantation. Histology sectioning and staining was performed at KI Histology Core.

[11] = PEG-coupled quenched substrate, protease that cleaves it

NCCc1ccc(S(=O)(=O)F)cc1 [AEBSF]
overall cleavage activity in the presence of inhibitor [1]: reduced
effect of inhibitor on FP-TAMRA labeling [2]: mitigated
overall cleavage activity in the presence of inhibitor [3]: reduced

CNC(=O)[C@@H](NC(=O)[C@H](CC(C)C)[C@H](O)C(=O)NO)C(C)(C)C [marimastat]
overall cleavage activity in the presence of inhibitor [1]: reduced
overall cleavage activity in the presence of inhibitor [3]: reduced
T7 sensor cleavage in the presence of inhibitor [4]: diminished

(QSY21)-GGPLGVRGKK(Cy5)-(PEG2)-C (QSY21-GGPLGVRGKK(Cy5)[PEG2′]C) [red-shifted FRET paired T7 substrate]
fluorescence signal, tumor compared with liver [5]: greater fluorescence signal in the tumor compared with the liver

PB2: protease nanosensor, uPA substrate, SEQ ID NO: 8 (Biotin-EGVNDNEEGFFSARKGGGSGRSANAKGC(PEG); reading uncertain; also: FAM label at residues 15-16, exact place not given here)
substrate specificity of nanosensor [6]: uPA substrate

PB13: protease nanosensor, broadly cleaved KLK substrate, SEQ ID NO: 9 (Biotin-EGVNDNEEGFFSARKGSGSKIIGGGC(PEG); reading uncertain; also: TAMRA at positions 15-16)
substrate specificity of nanosensor [6]: broadly cleaved KLK substrate

PEG-T7-Q: quenched FRET peptide substrate T7 conjugated to PEG core (5FAM-GGPLGVRGKK(CPQ2)[PEG2′]C; also: conjugated to PEG core, attachment not given here)
Second hit [7, 11]: MMP26
Top hit [7, 11]: MMP9

PEG-T24-Q: quenched FRET peptide substrate T24 conjugated to PEG core (5FAM-GGLGPKGQTGK(CPQ2)[PEG2′]C; also: conjugated to PEG core, attachment not given here)
Top hit [7, 11]: MMP13

PEG-T39-Q: quenched FRET peptide substrate T39 conjugated to PEG core (5FAM-GGGSGRSANAKGK(CPQ2)[PEG2′]GC; also: conjugated to PEG core, attachment not given here)
Top hit [7, 11]: uPA

T7: MMP-sensing peptide substrate (GPLGVRGK) of ABN library, reporter R3_04 (also: reporter R3_04 attached) [Substrate T7]
urine signal ([8]; 19-plex library, 22Rv1 mice): gave rise to urine signals
urinary signal ([8]; single sensor, biotinylated reporter, 22Rv1 xenograft-bearing mice): increased urinary signal
urine signal relative to control animals ([8]; three-plex iRGD-ABNs, individual reporter, 22Rv1-bearing): elevated relative to control animals
cleavage signal, tumor vs NAT samples [9]: signal was elevated across the majority of tumor samples
urine signal ([10]; 19-plex library, PC3 mice): gave rise to urine signals
classification of PC3-bearing from 22Rv1-bearing mice ([10]; three-plex iRGD-ABNs): did not classify between the two cohorts
urine signal relative to control animals ([10]; three-plex iRGD-ABNs, individual reporter, PC3-bearing): elevated relative to control animals

T24: MMP13 peptide substrate (GGLGPKGQTG) of ABN library, reporter R3_06 (also: reporter R3_06 attached) [Substrate T24]
cleavage by PC3 supernatant compared with 22Rv1 [1]: cleaved differentially
relative urine signal, PC3 compared with 22Rv1 [10]: higher relative urine signal change; also recorded: elevated
cleavage (individual reporter readout), PC3 relative to 22Rv1 ([10]; three-plex iRGD-ABNs): significantly greater cleavage
classification of PC3-bearing from 22Rv1-bearing mice ([10]; three-plex iRGD-ABNs): classified
protease that cleaves the substrate in vitro [7]: MMP13

T39: uPA peptide substrate (GGGSGRSANAKG) of ABN library, reporter R3_09 (also: reporter R3_09 attached) [Substrate T39]
cleavage by PC3 supernatant compared with 22Rv1 [1]: cleaved differentially
relative urine signal, PC3 compared with 22Rv1 [10]: higher relative urine signal change; also recorded: elevated
cleavage (individual reporter readout), PC3 relative to 22Rv1 ([10]; three-plex iRGD-ABNs): significantly greater cleavage
classification of PC3-bearing from 22Rv1-bearing mice ([10]; three-plex iRGD-ABNs): classified
protease that cleaves the substrate in vitro [7]: uPA
